# Measured values as given in ChEMBL document CHEMBL1128375, “Prodrugs of nitroxyl as potential aldehyde dehydrogenase inhibitors vis-a-vis vascular smooth muscle relaxants” (J Med Chem, 1995).
# Species: Oryctolagus cuniculus
# Test: In vitro relaxation of precontracted rabbit aortic rings.
# Assay type: functional
# Conditions: Aorta
row,EC50 [µM],SMILES
1,52.2,CC(=O)ON1C(=O)c2ccccc2S1(=O)=O
2,14.4,O=C1c2ccccc2S(=O)(=O)N1O
3,1.36,O=S(=O)(NO)c1ccc(Cl)cc1
4,1.03,O=S(=O)(NO)c1ccccc1
